Patent US5585277A, “Screening method for identifying ligands for target proteins” (Scriptgen Pharmaceuticals, Inc., priority 1995, dated 1996)

Assays:
[1] = tested on: Dihydrofolate Reductase (DHFR); experiment: Protection of DHFR from proteolytic digestion by Proteinase K, undigested DHFR quantified by ELISA; format: binding; conditions: same methods as Example 1, separate experiments, 54° C., 5 minutes
Description: (§1) Samples were removed and undigested DHFR was quantified by ELISA as follows:
(§2) (a) Protease incubations were diluted 50 fold with Tris-buffered saline (TBS);
(§3) (b) 50 μl diluted samples were transferred to the wells of an ELISA plate and incubated 60 minutes at room temperature;
(§4) (e) plate wells were washed as in (c) above;
(§5) (g) plate wells were washed as in (c); and […]

[2] = tested on: Dihydrofolate Reductase (DHFR); experiment: Protection of DHFR from Proteinase K digestion in the presence of a mixture of all 20 common amino acids, ELISA; format: binding; conditions: 10^-5M ligand, 10^-5M of all 20 common amino acids, DHFR 2.1 μg/ml, Proteinase K 80 μg/ml, 54° C., 5 minutes
Description: The following were combined and incubated at 54° C. for 5 minutes: DHFR (2.1 μg/ml), Proteinase K (80μg/ml), 0.1M Tris-HCl [pH 7.5], 10^-5M of all 20 common amino acids and either 0 or 10^-5M ligand.
as §1, §2, §3, §4, §5

NC(=O)C1=CN([C@@H]2O[C@H](COP(=O)(O)OP(=O)(O)OC[C@H]3O[C@@H](n4cnc5c(N)ncnc54)[C@H](OP(=O)(O)O)[C@@H]3O)[C@@H](O)[C@H]2O)C=CC1 [NADPH]
concentration at which ligand inhibits proteolysis of DHFR [1]: ≥ 10^-5
protection of DHFR from digestion relative to the absence of ligands [2]: Protects Dihydrofolate Reductase (DHFR) From Proteolytic Digestion
